# Results taken from patent publication US8859601B2, “Substituted benzyl and phenylsulfonyl triazolones, and use thereof” (Bayer Intellectual Property GmbH, priority 2008, dated 2014).
# Tests used:
# [1] = molecular target: T1, human V1a receptor (Homo sapiens, UniProt P37288); assay: Cellular in vitro assay for determining the vasopressin receptor activity (aequorin luminescence, antagonism of [Arg8]-vasopressin), hV1a; assay type: cell-based; conditions: CHO cell line transfected with the human V1a receptor; agonist [Arg8]-vasopressin
# T1 construct: expressed in transfected cells; host or cells: CHO K1 (ATCC), constitutively expressing a modified aequorin
# T1 sequence (P37288 whole entry): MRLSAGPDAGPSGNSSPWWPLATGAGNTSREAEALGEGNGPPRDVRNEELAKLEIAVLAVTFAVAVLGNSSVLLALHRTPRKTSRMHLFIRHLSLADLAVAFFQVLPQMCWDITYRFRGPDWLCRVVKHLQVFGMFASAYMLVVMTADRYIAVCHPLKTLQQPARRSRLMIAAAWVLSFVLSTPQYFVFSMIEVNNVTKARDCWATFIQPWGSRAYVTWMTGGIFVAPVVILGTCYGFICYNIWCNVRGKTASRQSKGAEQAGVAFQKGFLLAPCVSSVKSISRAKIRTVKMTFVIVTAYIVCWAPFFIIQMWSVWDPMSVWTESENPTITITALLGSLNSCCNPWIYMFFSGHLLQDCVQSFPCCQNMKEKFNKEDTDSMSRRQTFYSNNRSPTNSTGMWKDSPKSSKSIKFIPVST
# Source text: (§1) B-1. Cellular In Vitro Assay for Determining the Vasopressin Receptor Activity
# (§2) The identification of agonists and antagonists of the V1a and V2 vasopressin receptors from humans and rats and also the quantification of the activity of the substances described here took place using recombinant cell lines. These cells derive originally from a hamster ovary epithelial cell (Chinese Hamster Ovary, CHO K1, ATCC: American Type Culture Collection, Manassas, Va. 20108, USA). The test cell lines constitutively express a modified form of the calcium-sensitive photoprotein aequorin, which, after reconstitution with the cofactor coelenterazine, emits light when there are increases in the free calcium concentration (Rizzuto R., Simpson A. W., Brini M., Pozzan T.; Nature 358 (1992) 325-327). In addition, the cells are stably transfected with the human or rat V1a or V2 receptors. In the case of the Gs-coupling V2 receptors, the cells are stably transfected with a further gene, which codes for the promiscuous Gα16 protein (Amatruda T. T., Steele D. A., Slepak V. Z., Simon M. I., Proc. Nat. Acad. Sci. USA 88 (1991), 5587-5591), either independently or as a fusion gene. The resulting vasopressin receptor test cells react to stimulation of the recombinantly expressed vasopressin receptors by intracellular release of calcium ions, which can be quantified by the resulting aequorin luminescence using a suitable luminometer (Milligan G., Marshall F., Rees S., Trends in Pharmaco. Sci. 17 (1996) 235-237).
# (§3) On the day before the assay, the cells are plated out in culture medium (DMEM, 10% FCS, 2 mM glutamine, 10 mM HEPES) in 384-well microtiter plates and kept in a cell incubator (96% humidity, 5% v/v carbon dioxide, 37° C.). On the day of the assay, the culture medium is replaced by a Tyrode solution (140 mM sodium chloride, 5 mM potassium chloride, 1 mM magnesium chloride, 2 mM calcium chloride, 20 mM glucose, 20 mM HEPES), which additionally contains the cofactor coelenterazine (50 μM), and the microtiter plate is then incubated for a further 3-4 hours. The test substances in various concentrations are placed for 10 to 20 minutes in the wells of the microtiter plate before the agonist [Arg8]-vasopressin is added, and the resulting light signal is measured immediately in the luminometer. The IC50 values are calculated using the GraphPad PRISM computer program (Version 3.02).
# (§4) The table below lists representative IC50 values for the compounds of the invention on the cell line transfected with the human V1a or V2 receptor: […]
# [2] = molecular target: T2, human V2 receptor (Homo sapiens, UniProt P30518); assay: Cellular in vitro assay for determining the vasopressin receptor activity (aequorin luminescence, antagonism of [Arg8]-vasopressin), hV2; assay type: cell-based; conditions: CHO cell line transfected with the human V2 receptor (and Gα16); agonist [Arg8]-vasopressin
# T2 construct: Gα16 (possible fusion partner; the text leaves open whether it was fused or expressed separately); expressed in transfected cells; host or cells: CHO K1 (ATCC), constitutively expressing a modified aequorin and co-transfected with Gα16
# T2 sequence (P30518 whole entry, the tested form may be a part): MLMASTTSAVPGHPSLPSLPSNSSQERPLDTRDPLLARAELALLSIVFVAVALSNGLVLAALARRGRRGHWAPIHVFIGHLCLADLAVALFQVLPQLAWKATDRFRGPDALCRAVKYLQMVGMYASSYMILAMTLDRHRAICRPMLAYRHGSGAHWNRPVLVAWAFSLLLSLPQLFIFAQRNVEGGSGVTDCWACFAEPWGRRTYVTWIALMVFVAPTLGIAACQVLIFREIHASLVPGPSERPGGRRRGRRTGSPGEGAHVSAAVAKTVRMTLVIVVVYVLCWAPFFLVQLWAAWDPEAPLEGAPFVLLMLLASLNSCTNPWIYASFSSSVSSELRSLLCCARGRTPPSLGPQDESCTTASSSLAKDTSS
# Source text: as §1, §2, §3, §4
Compound,IC50 [1] [µM],IC50 [2] [µM]
"CC(C)(C)NC(=O)c1ccc(Cn2nc(-c3ccc(Cl)cc3)n(C3CC3)c2=O)c(Cl)c1 [Example 27, N-tert-Butyl-3-chloro-4-{[3-(4-chlorophenyl)-4-cyclopropyl-5-oxo-4,5-dihydro-1H-1,2,4-triazol-1-yl]methyl}benzamide]",4.2,0.027
"COc1cc(C(=O)NC(C)(C)C)ccc1Cn1nc(-c2ccc(Cl)cc2)n(C2CC2)c1=O [Example 20, N-tert-Butyl-4-{[3-(4-chlorophenyl)-4-cyclopropyl-5-oxo-4,5-dihydro-1H-1,2,4-triazol-1-yl]methyl}-3-methoxybenzenecarboxamide]",15.2,0.004
"C=CCn1c(-c2ccc(Cl)cc2)nn(S(=O)(=O)c2ccc(C(=O)NC(C)(C)C)cc2OC)c1=O [Example 1, N-tert-Butyl-4-{[3-(4-chlorophenyl)-5-oxo-4-prop-2-en-1-yl-4,5-dihydro-1H-1,2,4-triazol-1-yl]sulphonyl}-3-methoxybenzenecarboxamide]",5.5,0.003
COc1cc(C(=O)NC(C)(C)C)ccc1S(=O)(=O)n1nc(OC(C)C)n(C2CC2)c1=O [Example 3],> 25,0.013
COc1ccc(C(C)=O)cc1S(=O)(=O)n1nc(-c2ccc(Cl)cc2)n(C2CC2)c1=O [Example 13],3.5,0.29

# The remaining lines, values ahead:
IC50 [1] [µM],IC50 [2] [µM],Compound
> 25,0.009,"COc1cc(C(=O)NC(C)(C)C)ccc1S(=O)(=O)n1nc(-c2ccc(Cl)cc2)[nH]c1=O [Example 14, N-tert-Butyl-4-{[3-(4-chlorophenyl)-5-oxo-4,5-dihydro-1H-1,2,4-triazol-1-yl]sulphonyl}-3-methoxybenzenecarboxamide]"
0.87,0.22,"COc1cc(Cn2nc(-c3ccc(Cl)cc3)n(C3CC3)c2=O)ccc1C(=O)NC(C)(C)C [Example 22, N-tert-Butyl-4-{[3-(4-chlorophenyl)-4-cyclopropyl-5-oxo-4,5-dihydro-1H-1,2,4-triazol-1-yl]methyl}-2-methoxybenzamide]"
3.7,0.003,COc1cc(C(=O)NC(C)(C)C)ccc1S(=O)(=O)n1nc(-c2ccc(Cl)cc2)n(C2CC2)c1=O [Example 2]
7.1,0.004,"CC(C)(C)NC(=O)c1ccc(S(=O)(=O)n2nc(-c3ccc(Cl)cc3)n(C3CC3)c2=O)cc1 [Example 17, N-tert-Butyl-4-{[3-(4-chlorophenyl)-4-cyclopropyl-5-oxo-4,5-dihydro-1H-1,2,4-triazol-1-yl]sulphonyl}benzenecarboxamide]"
> 25,0.007,COc1cc(C(=O)NC(C)(C)C)ccc1S(=O)(=O)n1nc(N(C)C)n(C2CC2)c1=O [Example 7]
